Assay [1] relates to Strain BSHP7014 (mtnW:lacZ amyE::pxyl mtnXYZ). As to the kind of experiment: Toxicity of MTR for BSHP7014 strain (paper disc on ED1 minimal medium plates). In kind it is cell-based, Bacillus subtilis. How it is done: Toxicity of MTR for BSHP7014 strain. Strain BSHP7014 (mtnW:lacZ amyE::pxyl mtnXYZ) was grown on ED1 minimal medium plates in the presence of sulfate as sulfur source (panel A) or in the absence of any added sulfur source (agar as sole sulfur source, panel B). Xylose was added to the medium in order to trigger the expression of mtnXYZ from the pxyl promoter, 10 μl of methionine (met) or MTR was adsorbed on paper discs and plates were incubated over-night at 37° C. Methionine was used as a control for growth and/or toxicity of the sulfur source.
Two genes in the pathway are dispensable, mtnV and mtnX. The first one encodes a transaminase of which there are nine putative paralogs in the genome of B. subtilis (YwfG, AlaT, AspB, PatA, YhdR, YdfD, PatB, YisV, and HisC). In the same way, MtnX (YkrX) is a member of the phosphatase family pfam00702 ([12], FIG. 6), and therefore of a ubiquitous class of hydrolases (several phosphatase genes, in particular are present in the genome of B. subtilis). This is likely to account for the lack of phenotype under our growth conditions. […] In contrast, we discovered that MTR is toxic when the distal genes are present (when used as sole sulfur source or in the presence of sulfate, see FIG. 7). Because of the weak phenotype of a mtnZ mutant and the absence of phenotype of a mtnX mutant, we can be confident that MtnY acts before MtnW (this is a common feature in operons, where it is generally observed that the more distal genes code for proteins acting in the more proximate steps of the pathway).
Bacterial strains and plasmids, and growth media: E. coli and B. subtilis strains as well as plasmids used in this work are listed in Table 3. E. coli TG1 and XL1-Blue were used for cloning experiments (TG1 for single cross-over recombination and XL1-Blue for double cross-over recombination). Despite the fact that there are no public regulations yet in this domain in China, all experiments were performed in accordance with the European regulation requirements concerning the contained use of Genetically Modified Organisms of Group-I (French agreement N^o 2735). […] In the latter case, 10 [μl of the sulfur source under investigation was applicated onto paper discs (MTR, 200 mM stock solution and methionine, 100 mM stock solution) deposited at the center of the plate, after bacteria had been uniformly spread at the surface of the plate, and growth was measured around the disK. […] The optical density (OD) of bacterial cultures was measured at 600 nm. […]

In assay [2] the test system is B. subtilis 168 and mtn region mutants. The conditions noted are these: Bacillus subtilis; reference [5]; cited from earlier work.
Assay [3] shares this test system. As to the kind of experiment: Growth on MTR as sole sulfur source (ED1 minimal medium plates). In kind it is cell-based, Bacillus subtilis. As to conditions: mtnX mutant, strain BFS1852, in the absence of IPTG.

As for `CSC[C@@H](O)[C@@H](O)[C@@H](O)C=O` [MTR, methylthioribose], the “Toxicity of MTR to the cell” value was “toxic” in assay [1] (mtnU mutant, mtnY functional) and “extremely toxic” in assay [1] (mtnW mutant with distal genes mtnXYZ present, MTR as sole sulfur source or in the presence of sulfate). Further, the “Influence of MTR on sulfate supplemented plates” value in assay [1] (mtnW inactivated with a polar effect on the distal genes) is on record as “lack of influence”. In addition, the “MTR as sulfur source” value in assay [2] was “excellent sulfur source”. The “Growth on MTR as sole sulfur source” value in assay [3] was “failed to grow”.

The values are drawn from US20040019066A1, “Methionine salvage pathway in bacillus” (priority 2002, published 2004).
